The source made the active and inactive calls.
Key:
[1] = P. falciparum Dd2 growth inhibitors, dose response, SYBR Green, cherry-picked samples (AID 1159567); type: functional, cell-based
[2] = microbe, parasite or virus in culture; type: functional; conditions: Mycobacterium tuberculosis
[3] = Trypanosoma cruzi growth suppression in host cells – NIH3T3 host cells, beta-gal luminescence, confirmation (AID 2044); type: functional, cell-based;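 also: intracellular parasites grown in NIH/3T3 mouse fibroblasts as host cells; luminescent beta-galactosidase reporter signal from transgenic T. cruzi replicating inside host cells; inhibitors lower the luminescence signal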
[4] = NIH3T3 cell viability loss – ATP luminescence, mouse fibroblasts, counter-screen, dose response (AID 2010); type: functional, cell-based;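 also: cells exposed to compound for about 90 hours before reading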
[5] = HIV-1 Vif–A3G interaction blockers – biochemical, TR-FRET, GST-Vif 1-94, biotin-A3G peptide, dose response retest, primary screen (AID 1117319); type: functional;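 also: TR-FRET signal of purified GST-Vif binding a biotinylated A3G peptide; inhibitors lower the FRET signal by blocking Vif and A3G binding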
[6] = target: T1, Heat shock factor protein 1 (Mus musculus, UniProt P38532); test: enhancement of HSF1-driven luciferase signal – cell-based, NIH3T3, luminescence, dose retest, confirmation (AID 435004); type: functional;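 also: stress induced by proteasome inhibitor MG132 added 30 min after compound; luciferase reporter driven by HSF1 response element in NIH3T3 cells; actives raise luminescence as potentiators of the MG132 stress response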
T1 sequence (P38532 whole entry): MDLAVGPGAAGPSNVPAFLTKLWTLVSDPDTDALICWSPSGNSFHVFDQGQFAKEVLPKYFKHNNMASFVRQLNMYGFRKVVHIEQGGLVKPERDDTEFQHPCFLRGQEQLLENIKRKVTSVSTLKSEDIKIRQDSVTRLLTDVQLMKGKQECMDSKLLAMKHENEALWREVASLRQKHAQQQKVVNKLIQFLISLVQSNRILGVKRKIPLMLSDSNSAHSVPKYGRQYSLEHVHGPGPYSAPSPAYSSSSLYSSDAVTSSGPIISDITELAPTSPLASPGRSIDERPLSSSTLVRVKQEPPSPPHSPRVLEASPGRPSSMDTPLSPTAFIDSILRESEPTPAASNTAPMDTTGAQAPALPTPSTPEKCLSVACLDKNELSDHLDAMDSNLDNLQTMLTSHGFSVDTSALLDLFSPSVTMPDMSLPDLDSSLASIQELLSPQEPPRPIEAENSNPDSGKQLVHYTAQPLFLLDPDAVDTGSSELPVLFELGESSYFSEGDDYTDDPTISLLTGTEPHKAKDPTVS

[7] = blockers of HIV-1 envelope-mediated cell-cell fusion – cherry-pick, dose response (AID 652057); type: functional, cell-based
[8] = viability loss in CEM21 cells – cell-based, CellTiter-Glo luminescence, cherry-picked, cytotoxicity control for viral fusion inhibitor project, dose response (AID 652042); type: functional;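 also: potency for signal decrease meaning cytotoxicity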
[9] = blockers of HIV-1 ZM109 envelope-driven cell-cell fusion – HeLa effector, CEM target cells, luciferase, cherry-pick, dose response (AID 652058); type: functional, cell-based;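 also: luciferase signal from HIV-1 Env mediated cell-cell fusion of effector and target cells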
[10] = off-target signal loss in HeLa-CEM21 co-culture – HeLa F-luc CTL cells, cherry-picked, counter-screen for HIV-1 Env fusion inhibitor project, dose response (AID 652040); type: functional, cell-based;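 also: potency for signal decrease marking cytotoxic or nonspecific inhibition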
[11] = HIV-1 AD8 envelope cell-cell fusion blockers – cherry-pick, dose response (AID 652062); type: functional, cell-based;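 also: luciferase signal from cell-cell fusion driven by HIV-1 clade B AD8 Env; potency is for inhibitors of fusion seen as a drop in luminescence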
[12] = viability loss in THP-1 monocytes – THP-1 cells, cytotoxicity control for Vif-APOBEC3G degradation inhibitor project, dose response (AID 1117359); type: functional; conditions: THP-1
[13] = Luminescence Cell-Based Dose Retest to Confirm Inhibitors of Cancer Stem Cells. [Related pubchem assays (depositor defined):AID2717, AID2721]; type: functional; conditions: Homo sapiens
[14] = target: Heat shock protein HSP 90-alpha (Homo sapiens, UniProt P07900); type: functional, organism-based
[15] = target: T2, Corticotropin-releasing factor receptor 2/Corticotropin-releasing factor-binding protein (Homo sapiens, UniProt P24387+Q13324); test: Dose Response confirmation of uHTS hits for small molecule antagonists of the CRF-binding protein and CRF-R2 receptor complex.; type: functional; conditions: read-out: IC50_Mean
T2 sequence (Q13324 whole entry): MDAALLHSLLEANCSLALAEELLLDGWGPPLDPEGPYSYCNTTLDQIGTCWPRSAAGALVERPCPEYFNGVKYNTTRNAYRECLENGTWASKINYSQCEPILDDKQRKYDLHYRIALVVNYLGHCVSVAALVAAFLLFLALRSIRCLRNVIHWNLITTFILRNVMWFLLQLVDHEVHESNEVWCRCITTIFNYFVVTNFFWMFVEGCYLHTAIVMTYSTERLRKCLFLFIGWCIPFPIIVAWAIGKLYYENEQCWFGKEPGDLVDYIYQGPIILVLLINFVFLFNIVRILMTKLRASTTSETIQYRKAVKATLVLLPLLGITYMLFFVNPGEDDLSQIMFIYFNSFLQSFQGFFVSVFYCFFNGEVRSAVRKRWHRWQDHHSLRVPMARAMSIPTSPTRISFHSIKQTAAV
T2 sequence (P24387 whole entry): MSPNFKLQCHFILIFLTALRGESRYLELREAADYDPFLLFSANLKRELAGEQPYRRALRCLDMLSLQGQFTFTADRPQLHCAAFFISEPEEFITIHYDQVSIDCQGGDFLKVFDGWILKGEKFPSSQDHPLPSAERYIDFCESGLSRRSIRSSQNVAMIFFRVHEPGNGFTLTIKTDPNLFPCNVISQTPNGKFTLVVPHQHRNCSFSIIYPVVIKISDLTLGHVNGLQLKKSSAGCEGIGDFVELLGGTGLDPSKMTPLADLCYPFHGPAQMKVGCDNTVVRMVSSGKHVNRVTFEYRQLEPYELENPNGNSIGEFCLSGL

[16] = target: T2, Corticotropin-releasing factor receptor 2/Corticotropin-releasing factor-binding protein; test: activators of CRF receptor 2 with binding protein – uHTS hits, confirmation (AID 602473); type: functional; conditions: read-out: EC50_Mean
[17] = blockers of CRF-binding protein–CRF-R2 complex – cell-based, uHTS hits, 384-well, dose response (AID 651639); type: functional, Homo sapiens; conditions: read-out: IC50_Mean
[18] = HEK-293T cell viability reduction – luminescence, B-cell screen hits, cytotoxicity control for BCR NF-kB inhibitor project, dose response (AID 489021); type: functional, cell-based;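 also: HEK-293T cells carrying an NF-kB luciferase reporter; cells exposed to compound for about 14 hours before viability readout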
[19] = target: T3, Acyl-homoserine lactone acylase PvdQ (Pseudomonas aeruginosa (strain LESB58), UniProt Q9I194); test: PvdQ acylase enzyme activity blockers – biochemical, fluorescence, plate reader and imaging, cherry-picks, dose response (AID 493231)
T3 sequence (Q9I194 whole entry): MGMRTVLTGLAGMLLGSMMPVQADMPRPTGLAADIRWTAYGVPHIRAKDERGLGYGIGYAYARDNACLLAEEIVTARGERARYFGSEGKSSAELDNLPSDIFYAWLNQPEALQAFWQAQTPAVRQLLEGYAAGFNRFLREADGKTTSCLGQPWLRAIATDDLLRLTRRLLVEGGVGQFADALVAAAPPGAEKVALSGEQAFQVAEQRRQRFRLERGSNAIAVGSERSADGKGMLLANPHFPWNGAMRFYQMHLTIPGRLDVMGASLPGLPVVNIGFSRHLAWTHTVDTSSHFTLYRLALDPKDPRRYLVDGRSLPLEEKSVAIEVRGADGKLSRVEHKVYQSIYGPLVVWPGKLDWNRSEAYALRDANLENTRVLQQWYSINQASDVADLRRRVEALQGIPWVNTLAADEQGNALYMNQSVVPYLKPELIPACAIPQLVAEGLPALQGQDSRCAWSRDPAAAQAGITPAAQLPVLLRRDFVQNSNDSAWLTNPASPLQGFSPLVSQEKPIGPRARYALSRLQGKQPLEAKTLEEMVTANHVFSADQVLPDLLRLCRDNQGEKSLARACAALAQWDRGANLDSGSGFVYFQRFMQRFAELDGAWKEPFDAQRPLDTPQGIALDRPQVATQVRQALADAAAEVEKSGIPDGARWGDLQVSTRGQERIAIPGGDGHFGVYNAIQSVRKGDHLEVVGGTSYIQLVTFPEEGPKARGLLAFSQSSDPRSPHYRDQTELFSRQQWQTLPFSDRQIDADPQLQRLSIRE

In the case of `CO[C@@H]1CN(C)C(=O)c2ccc(NC(=O)Nc3cc(Cl)cc(Cl)c3)cc2OC[C@H](C)NC[C@H]1C`, the AC50 [1] was 6.54 µM (active).

In the case of `CCCc1ccc(C2=Nn3c(nnc3C(C)C)SC2)cc1`, the CC50 [2] was > 40 µM (active).

In the case of `CC(=O)C1=C(C)NC(SCC(=O)c2ccc(F)cc2)=C(C#N)C1c1ccco1` (stereo unspecified), the CC50 [2] was 39.2 µM (active).

With `CC(C)(C)c1ccc(C(=O)N2CCN(CCNC(=O)C(=O)NCc3ccc(Cl)cc3)CC2)cc1` the EC50 [3] was 3.43 µM (active), the CC50 [2] was > 40 µM (active) and the EC50 [4] was > 30 µM (not active).

For `Cc1ccc2c(c1C)NC(=O)C2(O)CC(=O)c1ccc2c(c1)OCO2` (stereo unspecified), the IC50 [5] was > 100 µM (active).

For `Cc1ccc(C(C(=O)NC2CCCCC2)N(C(=O)Cc2c[nH]c3ccccc23)c2ccccc2)o1` (stereo unspecified), the EC50 [3] was 1.6 µM (active), the EC50 [4] was > 60 µM (not active) and the EC50 [6] was > 260 µM (inactive). The AC50 [7] was 4.14 µM (active), the AC50 [8] was 47.4 µM (active) and the AC50 [9] was 2.63 µM (active). The AC50 [10] was 10.3 µM (active) and the AC50 [11] was 6.79 µM (active).

In the case of `C[C@H](CO)N1C[C@H](C)[C@H](CN(C)Cc2ccc(F)cc2)OCc2ccccc2-c2ccccc2C1=O`, the AC50 [7] was 0.557 µM (active), the AC50 [9] was 1.39 µM (active) and the AC50 [11] was 3.77 µM (active).

For `COc1ccc(/N=c2\scc(-c3ccc(OC)cc3)n2CCO)cc1`, the CC50 [12] was 28.5 µM (active) and the IC50 [5] was > 100 µM (active).

In the case of `O=C1NC(=O)N(Cc2ccco2)C(=O)/C1=C/NCc1ccc2c(c1)OCO2`, the IC50 [5] was > 100 µM (active).

In the case of `Cc1ccc2nc(-c3ccncc3)cc(-c3ccccc3)c2c1`, the CC50 [2] was > 40 µM (active).

In the case of `O=S(=O)(c1ccc(Cl)cc1)N1CCC(n2cnc3cc(C(F)(F)F)ccc32)CC1`, the EC50 [3] was 2.04 µM (active), the CC50 [2] was > 40 µM (active) and the EC50 [4] was > 60 µM (not active). For the same compound, the AC50 [13] was 0.552 µM (active).

For `CCc1ccc(-c2cc(C(=O)N3N=C(C(F)F)CC3(O)C(F)F)c3ccccc3n2)cc1` (stereo unspecified), the EC50 [3] was 2.9 µM (active), the EC50 [4] was > 60 µM (not active) and the AC50 [13] was 5.74 µM (active). The AC50 [14] was 4.04 µM (active).

With `COc1cccc2ccc(CC(O)(c3ccccc3)c3ccccc3)nc12` the IC50 [15] was < 0.368 µM (active), the EC50 [16] was > 53 µM (inactive) and the IC50 [17] was > 20 µM (inactive).

In the case of `CCCOc1ccc(NC(=O)C(=O)NCCCn2ccnc2)cc1`, the IC50 [18] was > 80 µM (inactive).

For `O=C(Cc1ccccc1)N[C@@H]1C=C[C@H](CC(=O)N2CCCCC2)O[C@@H]1CO`, the AC50 [9] was 28.7 µM (active).

In the case of `O=C1OC(c2ccccc2)c2ccccc21` (stereo unspecified), the AC50 [19] was 97.9 µM (active).

Reference: ChEMBL document CHEMBL1201862, “PubChem BioAssay data set” (2004)
